Laboratory results reported in patent publication US8299070B2, “Indole compounds and pharmaceutical use thereof” (Japan Tobacco Inc., priority 2009, dated 2012).

Target: T1, hITK enzyme (FLAG-tagged full-length hITK) (Homo sapiens, UniProt Q08881)
T1 construct: strongly expressing FLAG-tagged full-length hITK in Sf9 cells; FLAG; made in house; host or cells: Sf9 insect cells (ITK); Escherichia coli (GST-SLP76 substrate)
T1 sequence (Q08881 1-620): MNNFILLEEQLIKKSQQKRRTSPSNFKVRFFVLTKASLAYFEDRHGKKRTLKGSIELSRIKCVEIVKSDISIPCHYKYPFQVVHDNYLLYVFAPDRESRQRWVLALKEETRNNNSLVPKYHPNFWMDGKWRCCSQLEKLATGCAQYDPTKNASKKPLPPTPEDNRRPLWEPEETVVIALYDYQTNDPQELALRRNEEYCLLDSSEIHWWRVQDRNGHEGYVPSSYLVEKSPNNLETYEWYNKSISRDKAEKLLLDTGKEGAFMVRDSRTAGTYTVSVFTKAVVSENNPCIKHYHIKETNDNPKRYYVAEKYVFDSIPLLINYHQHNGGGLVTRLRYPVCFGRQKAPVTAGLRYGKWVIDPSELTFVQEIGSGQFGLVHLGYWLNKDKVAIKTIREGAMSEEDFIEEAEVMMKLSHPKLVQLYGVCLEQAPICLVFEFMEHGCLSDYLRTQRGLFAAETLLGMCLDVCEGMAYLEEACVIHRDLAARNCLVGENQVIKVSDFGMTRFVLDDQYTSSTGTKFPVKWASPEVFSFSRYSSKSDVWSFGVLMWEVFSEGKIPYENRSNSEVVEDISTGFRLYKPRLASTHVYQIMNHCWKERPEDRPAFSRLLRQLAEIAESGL
Test: ITK inhibitory activity (HTRF kinase assay, biotinylated GST-SLP76 substrate)
Type: biochemical
Details: IC50 calculated from the 2 test compound concentrations sandwiching 50% ITK inhibitory rate
Procedure, shortened: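 Sf9-expressed hITK (50 ng/mL enzyme solution) reacted 10 min at RT in MOPS pH 7.0, 10 mmol/L MgCl2, 1 mmol/L DTT with E. coli SLP76 aa95–175 substrate; substrate solution held 100 µmol/L ATP (6 µmol/L for selected compounds). HTRF 665/620 ratio, blank-corrected; IC50 interpolated between two concentrations bracketing 50% inhibition.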

SMILES	IC50
CC1COCC(=O)N1C(C)C(=O)N(C)c1ccc2cc(-c3n[nH]c4c3CCC(C)(C)C4)[nH]c2c1 (centres unmarked) [Example 152]	14 nM
CC1COCC(=O)N1C(C)C(=O)N(C)c1ccc2cc(-c3n[nH]c4c3CCC(C)(C)C4)[nH]c2c1 (centres unmarked) [Example 153]	5 nM
CO[C@H]1CN(CC(=O)N(C)c2ccc3cc(-c4n[nH]c5c4CCC(C)(C)C5)[nH]c3c2)C[C@H]1OC [Example 155]	9 nM
CN(C(=O)Cn1ccccc1=O)c1ccc2cc(-c3n[nH]c4c3CCC(C)(C)C4)[nH]c2c1 [Example 156]	< 1 nM
CN(C(=O)Cn1cccn1)c1ccc2cc(-c3n[nH]c4c3CCC(C)(C)C4)[nH]c2c1 [Example 157]	1 nM
CN(C(=O)C(C)(C)N1CCOCC1)c1ccc2cc(-c3n[nH]c4c3CCC(C)(C)C4)[nH]c2c1 [Example 161]	22 nM
CN(C(=O)CN1CC(O)CC1=O)c1ccc2cc(-c3n[nH]c4c3CCC(C)(C)C4)[nH]c2c1 (centres unmarked) [Example 164]	3 nM
CC1OCCN(CC(=O)N(C)c2ccc3cc(-c4n[nH]c5c4CCC(C)(C)C5)[nH]c3c2)C1=O (centres unmarked) [Example 167]	1 nM
CO[C@H](C)C(=O)N(C)c1ccc2cc(-c3n[nH]c4c3CCC(C)(C)C4)[nH]c2c1 [Example 168]	3 nM
CN(C(=O)CN1CC[C@@H](O)CC1=O)c1ccc2cc(-c3n[nH]c4c3CCC(C)(C)C4)[nH]c2c1 [Example 170]	< 1 nM
C[C@H]1COCC(=O)N1CC(=O)N(C)c1ccc2cc(-c3n[nH]c4c3CCC(C)(C)C4)[nH]c2c1 [Example 172]	2 nM
CC(C)C(C(=O)N(C)c1ccc2cc(-c3n[nH]c4c3CCC(C)(C)C4)[nH]c2c1)N1CCOCC1 (centres unmarked) [Example 173]	13 nM
CN(C(=O)CN1CCCC(C)(C)C1=O)c1ccc2cc(-c3n[nH]c4c3CCC(C)(C)C4)[nH]c2c1 [Example 174]	2 nM
CN(CC(=O)N(C)c1ccc2cc(-c3n[nH]c4c3CCC(C)(C)C4)[nH]c2c1)C(=O)C(C)(C)C [Example 179]	1 nM
CN(C(=O)CN1CC(C)(C)OCC1=O)c1ccc2cc(-c3n[nH]c4c3CCC(C)(C)C4)[nH]c2c1 [Example 184]	1 nM
CN(C(=O)CN1CCNC1=O)c1ccc2cc(-c3n[nH]c4c3CCC(C)(C)C4)[nH]c2c1 [Example 185]	2 nM
CN1CCN(CC(=O)N(C)c2ccc3cc(-c4n[nH]c5c4CCC(C)(C)C5)[nH]c3c2)C1=O [Example 186]	1 nM
CC[C@@H](C(=O)N(C)c1ccc2cc(-c3n[nH]c4c3CCC(C)(C)C4)[nH]c2c1)N1CCOCC1 [Example 190]	4 nM
CC(=O)N(C)CC(=O)N(C)c1ccc2cc(-c3n[nH]c4c3CCC(C)(C)C4)[nH]c2c1 [Example 192]	2 nM
CC(C(=O)N(C)c1ccc2cc(-c3n[nH]c4c3CCC(C)(C)C4)[nH]c2c1)N(C)C(=O)OC(C)(C)C (centres unmarked) [Example 195]	20 nM
COC(=O)N(C)CC(=O)N(C)c1ccc2cc(-c3n[nH]c4c3CCC(C)(C)C4)[nH]c2c1 [Example 198]	1 nM
CC(C)C(=O)N(C)CC(=O)N(C)c1ccc2cc(-c3n[nH]c4c3CCC(C)(C)C4)[nH]c2c1 [Example 199]	2 nM
CN(CC(=O)N(C)c1ccc2cc(-c3n[nH]c4c3CCC(C)(C)C4)[nH]c2c1)C(=O)C1CC1 [Example 200]	1 nM
CN(C(=O)C1CCOC1(C)C)c1ccc2cc(-c3n[nH]c4c3CCC(C)(C)C4)[nH]c2c1 (centres unmarked) [Example 201]	10 nM
CC(=O)N(C)[C@@H](C)C(=O)N(C)c1ccc2cc(-c3n[nH]c4c3CCC(C)(C)C4)[nH]c2c1 [Example 202]	14 nM
C[C@@H](C(=O)N(C)c1ccc2cc(-c3n[nH]c4c3CCC(C)(C)C4)[nH]c2c1)N(C)C(=O)C1CC1 [Example 205]	27 nM
CCN(C(=O)CO)c1ccc2cc(-c3n[nH]c4c3CCC(C)(C)C4)[nH]c2c1 [Example 206]	5 nM
CCC(=O)N(CCO)c1ccc2cc(-c3n[nH]c4c3CCC(C)(C)C4)[nH]c2c1 [Example 209]	4 nM
CCC(=O)N(CCOC)c1ccc2cc(-c3n[nH]c4c3CCC(C)(C)C4)[nH]c2c1 [Example 212]	5 nM
COCC(=O)N(CCO)c1ccc2cc(-c3n[nH]c4c3CCC(C)(C)C4)[nH]c2c1 [Example 213]	< 3 nM

Other lines, results leading:

IC50	SMILES
3 nM	CN(C(=O)[C@@H]1CCC(=O)N1C)c1ccc2cc(-c3n[nH]c4c3CCC(C)(C)C4)[nH]c2c1 [Example 151]
2 nM	CN(C(=O)CN1CCOC1=O)c1ccc2cc(-c3n[nH]c4c3CCC(C)(C)C4)[nH]c2c1 [Example 154]
5 nM	CN(C(=O)C(CO)OC1CCCC1)c1ccc2cc(-c3n[nH]c4c3CCC(C)(C)C4)[nH]c2c1 (centres unmarked) [Example 158]
7 nM	CC(C)OC(CO)C(=O)N(C)c1ccc2cc(-c3n[nH]c4c3CCC(C)(C)C4)[nH]c2c1 (centres unmarked) [Example 159]
1 nM	CN(C(=O)CN1C(=O)CC[C@H]1CO)c1ccc2cc(-c3n[nH]c4c3CCC(C)(C)C4)[nH]c2c1 [Example 160]
1 nM	CC1CCN(CC(=O)N(C)c2ccc3cc(-c4n[nH]c5c4CCC(C)(C)C5)[nH]c3c2)C1=O (centres unmarked) [Example 162]
1 nM	CN(C(=O)CN1CC(C)(C)CC1=O)c1ccc2cc(-c3n[nH]c4c3CCC(C)(C)C4)[nH]c2c1 [Example 163]
5 nM	CC(=O)N1CCC[C@H]1C(=O)N(C)c1ccc2cc(-c3n[nH]c4c3CCC(C)(C)C4)[nH]c2c1 [Example 165]
1 nM	CC(=O)N1CCC[C@@H]1C(=O)N(C)c1ccc2cc(-c3n[nH]c4c3CCC(C)(C)C4)[nH]c2c1 [Example 166]
3 nM	CO[C@@H](C)C(=O)N(C)c1ccc2cc(-c3n[nH]c4c3CCC(C)(C)C4)[nH]c2c1 [Example 169]
1 nM	C[C@@H]1COCC(=O)N1CC(=O)N(C)c1ccc2cc(-c3n[nH]c4c3CCC(C)(C)C4)[nH]c2c1 [Example 171]
2 nM	CN(C(=O)CN1CC(C)(C)CCC1=O)c1ccc2cc(-c3n[nH]c4c3CCC(C)(C)C4)[nH]c2c1 [Example 175]
7 nM	COC1CCC(CC(=O)N(C)c2ccc3cc(-c4n[nH]c5c4CCC(C)(C)C5)[nH]c3c2)CC1 (centres unmarked) [Example 176]
2 nM	CN(C(=O)CN1C(=O)CC[C@@H]1CO)c1ccc2cc(-c3n[nH]c4c3CCC(C)(C)C4)[nH]c2c1 [Example 177]
4 nM	CN(CC(=O)N(C)c1ccc2cc(-c3n[nH]c4c3CCC(C)(C)C4)[nH]c2c1)C(=O)OCc1ccccc1 [Example 178]
< 1 nM	COCC(=O)N(C)CC(=O)N(C)c1ccc2cc(-c3n[nH]c4c3CCC(C)(C)C4)[nH]c2c1 [Example 180]

IC50	SMILES
2 nM	C[C@@H]1CN(CC(=O)N(C)c2ccc3cc(-c4n[nH]c5c4CCC(C)(C)C5)[nH]c3c2)C(=O)CO1 [Example 182]
1 nM	CN(C(=O)CN1CCC(C)(C)C1=O)c1ccc2cc(-c3n[nH]c4c3CCC(C)(C)C4)[nH]c2c1 [Example 183]
2 nM	CN(C(=O)CN1CCCCCCC1=O)c1ccc2cc(-c3n[nH]c4c3CCC(C)(C)C4)[nH]c2c1 [Example 187]
1 nM	CC1CC(=O)N(CC(=O)N(C)c2ccc3cc(-c4n[nH]c5c4CCC(C)(C)C5)[nH]c3c2)C1 (centres unmarked) [Example 188]
1 nM	CN(C(=O)CN1CCC(C)(C)CC1=O)c1ccc2cc(-c3n[nH]c4c3CCC(C)(C)C4)[nH]c2c1 [Example 189]
7 nM	CC[C@H](C(=O)N(C)c1ccc2cc(-c3n[nH]c4c3CCC(C)(C)C4)[nH]c2c1)N1CCOCC1 [Example 191]
2 nM	CN(CC(=O)N(C)c1ccc2cc(-c3n[nH]c4c3CCC(C)(C)C4)[nH]c2c1)C(=O)CC(C)(C)O [Example 193]
2 nM	CO[C@H]1CC[C@@H](C(=O)N(C)CC(=O)N(C)c2ccc3cc(-c4n[nH]c5c4CCC(C)(C)C5)[nH]c3c2)CC1 [Example 194]
4 nM	COC[C@H]1CCC(=O)N1CC(=O)N(C)c1ccc2cc(-c3n[nH]c4c3CCC(C)(C)C4)[nH]c2c1 [Example 196]
2 nM	COC[C@@H]1CCC(=O)N1CC(=O)N(C)c1ccc2cc(-c3n[nH]c4c3CCC(C)(C)C4)[nH]c2c1 [Example 197]
12 nM	CCC(=O)N(C)[C@@H](C)C(=O)N(C)c1ccc2cc(-c3n[nH]c4c3CCC(C)(C)C4)[nH]c2c1 [Example 203]
4 nM	CCN(C(=O)COC)c1ccc2cc(-c3n[nH]c4c3CCC(C)(C)C4)[nH]c2c1 [Example 207]
29 nM	CC1(C)CCc2c(-c3cc4ccc(N5CCOC5=O)cc4[nH]3)n[nH]c2C1 [Example 208]
36 nM	CC1(C)CCc2c(-c3cc4ccc(N5CCCC5=O)cc4[nH]3)n[nH]c2C1 [Example 210]
33 nM	CC1(C)CCc2c(-c3cc4ccc(N5CCCCC5=O)cc4[nH]3)n[nH]c2C1 [Example 211]

Same assay, conditions: at 30 nM test compound; read-out: ITK inhibitory rate (%)

SMILES	inhibition at 0.03 µM
CC(C)C(=O)N(C)[C@@H](C)C(=O)N(C)c1ccc2cc(-c3n[nH]c4c3CCC(C)(C)C4)[nH]c2c1 [Example 204]	49.2%
